Data published in PubChem BioAssay AID2060351 (Molecular Pharmacology Branch, DTP, NCI, 2025).
“And” between values parts separate entries of the source, which are not always exact repeats. Identical values can stand only once.

Test system: 521955-158-R7-J2-PDC spheroids, viability % test/control
Test: Anticancer human tumor 521955-158-R7-J2-PDC patient-derived pancreatic carcinoma cell line growth inhibition [TAK]
Details: spheroids with HUVEC and MSC; for viability, T/C: stronger effect = lower value
Summary of the method: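 Tumor cells were grown as spheroids with HUVEC and hMSC (60:25:15) and treated with targeted agents combined with TAK-243 or ipatasertib. Drugs were tested in half-log steps down from near the clinical Cmax, or from 10 microM where Cmax was unknown.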

[1] = curve of first compound, second compound 0.3 µM
[2] = curve of first compound, second compound 0.949 µM
[3] = curve of first compound, second compound 3 µM
[4] = curve of first compound, second compound 9.49 µM
[5] = curve of first compound, second compound 30 µM
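Note: spheroids exposed to compound for 7 days before readout.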
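Throughout, for viability, T/C: 100% = DMSO vehicle control wells.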

Cn1cnc2c(F)c(Nc3ccc(Br)cc3Cl)c(C(=O)NOCCO)cc21 + CC(C)NCC(C(=O)N1CCN(c2ncnc3c2C(C)CC3O)CC1)c1ccc(Cl)cc1
IC50 [1]: 108 nM
IC50 [2]: 65 nM
IC50 [3]: 33.9 nM
IC50 [4]: 19.9 nM
IC50 [5]: 17.4 nM
viability, T/C (second compound 0.3 µM, first compound 0.00949 µM): 71.3%
viability, T/C (second compound 0.3 µM, first compound 0.03 µM): 61.7%
viability, T/C (second compound 0.3 µM, first compound 0.0949 µM): 45.6%
viability, T/C (second compound 0.3 µM, first compound 0.3 µM): 45.5%
viability, T/C (second compound 0.3 µM, first compound 0.949 µM): 28.2%
viability, T/C (second compound 0.3 µM, first compound 3 µM): 13.9%
viability, T/C (second compound 0.949 µM, first compound 0.00949 µM): 76.7%
viability, T/C (second compound 0.949 µM, first compound 0.03 µM): 55.5%
viability, T/C (second compound 0.949 µM, first compound 0.0949 µM): 46.3%
viability, T/C (second compound 0.949 µM, first compound 0.3 µM): 31.3%
viability, T/C (second compound 0.949 µM, first compound 0.949 µM): 25.5%
viability, T/C (second compound 0.949 µM, first compound 3 µM): 9.79%
viability, T/C (second compound 3 µM, first compound 0.00949 µM): 63.9%
viability, T/C (second compound 3 µM, first compound 0.03 µM): 54.7%
viability, T/C (second compound 3 µM, first compound 0.0949 µM): 32.4%
viability, T/C (second compound 3 µM, first compound 0.3 µM): 31.5%
viability, T/C (second compound 3 µM, first compound 0.949 µM): 23.7%
viability, T/C (second compound 3 µM, first compound 3 µM): 9.02%
viability, T/C (second compound 9.49 µM, first compound 0.00949 µM): 61.8%
viability, T/C (second compound 9.49 µM, first compound 0.03 µM): 40.4%
viability, T/C (second compound 9.49 µM, first compound 0.0949 µM): 34%
viability, T/C (second compound 9.49 µM, first compound 0.3 µM): 27.5%
viability, T/C (second compound 9.49 µM, first compound 0.949 µM): 25.7%
viability, T/C (second compound 9.49 µM, first compound 3 µM): 10.8%
viability, T/C (second compound 30 µM, first compound 0.00949 µM): 56.6%
viability, T/C (second compound 30 µM, first compound 0.03 µM): 43.3%
viability, T/C (second compound 30 µM, first compound 0.0949 µM): 34.6%
viability, T/C (second compound 30 µM, first compound 0.3 µM): 30%
viability, T/C (second compound 30 µM, first compound 0.949 µM): 17.6%
viability, T/C (second compound 30 µM, first compound 3 µM): 7.96%

COC1CC2CCC(C)C(O)(O2)C(=O)C(=O)N2CCCCC2C(=O)OC(C(C)CC2CCC(OCCO)C(OC)C2)CC(=O)C(C)C=C(C)C(O)C(OC)C(=O)C(C)CC(C)C=CC=CC=C1C (configuration not stated)
viability, T/C (compound 0.000316 µM): 103%
viability, T/C (compound 0.001 µM): 77.4% and 84.4%
viability, T/C (compound 0.00316 µM): 75.2% and 91.7%
viability, T/C (compound 0.01 µM): 90.3% and 101%
viability, T/C (compound 0.0316 µM): 109% and 117%
viability, T/C (compound 0.1 µM): 102% and 85.5%
IC50 (curve of compound): > 100 nM

CC(C)CC(NC(=O)C(Cc1ccccc1)NC(=O)c1cnccn1)B(O)O (configuration not stated) + CC(C)NCC(C(=O)N1CCN(c2ncnc3c2C(C)CC3O)CC1)c1ccc(Cl)cc1
IC50 [1]: 5.61 nM
IC50 [2]: 5.38 nM
IC50 [3]: 5.61 nM
IC50 [4]: 5.21 nM
IC50 [5]: 5.09 nM
viability, T/C (second compound 0.3 µM, first compound 31.6 pM): 113%
viability, T/C (second compound 0.3 µM, first compound 0.0001 µM): 87.5%
viability, T/C (second compound 0.3 µM, first compound 0.000316 µM): 92%
viability, T/C (second compound 0.3 µM, first compound 0.001 µM): 104%
viability, T/C (second compound 0.3 µM, first compound 0.00316 µM): 92.7%
viability, T/C (second compound 0.3 µM, first compound 0.01 µM): 6.67%
viability, T/C (second compound 0.949 µM, first compound 31.6 pM): 94.7%
viability, T/C (second compound 0.949 µM, first compound 0.0001 µM): 82.4%
viability, T/C (second compound 0.949 µM, first compound 0.000316 µM): 77.3%
viability, T/C (second compound 0.949 µM, first compound 0.001 µM): 82.8%
viability, T/C (second compound 0.949 µM, first compound 0.00316 µM): 92.2%
viability, T/C (second compound 0.949 µM, first compound 0.01 µM): 8.18%
viability, T/C (second compound 3 µM, first compound 31.6 pM): 93.4%
viability, T/C (second compound 3 µM, first compound 0.0001 µM): 101%
viability, T/C (second compound 3 µM, first compound 0.000316 µM): 86.6%
viability, T/C (second compound 3 µM, first compound 0.001 µM): 84.9%
viability, T/C (second compound 3 µM, first compound 0.00316 µM): 93.1%
viability, T/C (second compound 3 µM, first compound 0.01 µM): 7.99%
viability, T/C (second compound 9.49 µM, first compound 31.6 pM): 92.7%
viability, T/C (second compound 9.49 µM, first compound 0.0001 µM): 95.9%
viability, T/C (second compound 9.49 µM, first compound 0.000316 µM): 68.7%
viability, T/C (second compound 9.49 µM, first compound 0.001 µM): 80%
viability, T/C (second compound 9.49 µM, first compound 0.00316 µM): 82.7%
viability, T/C (second compound 9.49 µM, first compound 0.01 µM): 7.48%
viability, T/C (second compound 30 µM, first compound 31.6 pM): 86.8%
viability, T/C (second compound 30 µM, first compound 0.0001 µM): 83.7%
viability, T/C (second compound 30 µM, first compound 0.000316 µM): 75.4%
viability, T/C (second compound 30 µM, first compound 0.001 µM): 78%
viability, T/C (second compound 30 µM, first compound 0.00316 µM): 84.1%
viability, T/C (second compound 30 µM, first compound 0.01 µM): 5.06%
